Experimental data reported in ChEMBL document CHEMBL1201862, “PubChem BioAssay data set” (2004).
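Results reflect a 48-hour exposure of cells in 96-well plates to compound at five concentrations. At the GI50, growth is halved.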 Active and inactive are the calls of the source. Rule as the data show it: active = GI50 up to about 1.1 µM and inactive = higher.

Columns and labels:
Experiment in all cases: NCI anticancer screen, dose series, 48 h
[1] = system: HCC 2998
[2] = system: OVCAR-5
[3] = system: SNB-75
[4] = system: DMS-114
[5] = system: ACHN
[6] = system: HL-60
[7] = system: NCI-H226
[8] = system: SK-MEL-2
[9] = system: TK-10
[10] = system: OVCAR-4
[11] = system: SR
[12] = system: SF-539
[13] = system: SK-MEL-28
[14] = system: A549
[15] = system: HCT-15
[16] = system: UO-31
[17] = system: SK-MEL-5
[18] = system: K562
[19] = system: HOP-92
[20] = system: SNB-78
[21] = system: A498
[22] = system: CAKI-1
[23] = system: COLO 205
[24] = system: EKVX
[25] = system: Malme-3M
[26] = system: SW-620
[27] = system: SK-OV-3
[28] = system: SF-268
[29] = system: NCI-H23
[30] = system: OVCAR-8
[31] = system: RPMI-8226
[32] = system: HT-29
[33] = system: HOP-62
[34] = system: U-251
[35] = system: OVCAR-3
[36] = system: M19-MEL
[37] = system: NCI-H460
[38] = system: UACC-62
[39] = system: DMS-273
[40] = system: NCI-H522
[41] = system: CCRF-CEM
[42] = system: IGROV-1
[43] = system: KM-20L2
[44] = system: HCT-116
[45] = system: KM12
[46] = system: HOP-18
[47] = system: SF-295
[48] = system: SN12C
[49] = system: DLD-1
[50] = system: SNB-19
[51] = system: UACC-257
[52] = system: XF498
[53] = system: LXFL 529
[54] = system: M14
[55] = system: 786-0
[56] = system: MOLT-4
[57] = system: RXF 393
[58] = system: LOX IMVI

## COc1ccc(C(=O)C(C(=O)CCC(=O)Nc2cccc(C(F)(F)F)c2)c2ccccc2)cc1 (configuration not stated)
[1]
  GI50: > 100 µM (inactive)
[2]
  GI50: > 100 µM (inactive)
[3]
  GI50: > 100 µM (inactive)
[4]
  GI50: 36.2 µM (inactive)
[5]
  GI50: 80.7 µM (inactive)
[6]
  GI50: 61.2 µM (inactive)
[7]
  GI50: > 100 µM (inactive)
[8]
  GI50: 96.8 µM (inactive)
[9]
  GI50: > 100 µM (inactive)
[10]
  GI50: 37.7 µM (inactive)
[11]
  GI50: 62.7 µM (inactive)
[12]
  GI50: > 100 µM (inactive)
[13]
  GI50: > 100 µM (inactive)
[14]
  GI50: 65.9 µM (inactive)
[15]
  GI50: 78.5 µM
[16]
  GI50: 55.1 µM (inactive)
[17]
  GI50: 33.2 µM (inactive)
[18]
  GI50: 54 µM (inactive)
[19]
  GI50: 53.6 µM (inactive)
[20]
  GI50: > 100 µM (inactive)
[21]
  GI50: > 100 µM (inactive)
[22]
  GI50: > 100 µM (inactive)
[23]
  GI50: > 100 µM (inactive)
[24]
  GI50: > 100 µM (inactive)
[25]
  GI50: > 100 µM (inactive)
[26]
  GI50: > 100 µM (inactive)
[27]
  GI50: > 100 µM (inactive)
[28]
  GI50: > 100 µM (inactive)
[29]
  GI50: 44.8 µM (inactive)
[30]
  GI50: > 100 µM (inactive)
[31]
  GI50: 55.2 µM (inactive)
[32]
  GI50: 65.6 µM (inactive)
[33]
  GI50: > 100 µM (inactive)
[34]
  GI50: > 100 µM (inactive)
[35]
  GI50: 80 µM (inactive)
[36]
  GI50: 67.5 µM (inactive)
[37]
  GI50: > 100 µM (inactive)
[38]
  GI50: 91.8 µM (inactive)
[39]
  GI50: > 100 µM (inactive)
[40]
  GI50: 32.1 µM (inactive)
[41]
  GI50: 46.8 µM (inactive)
[42]
  GI50: > 100 µM (inactive)
[43]
  GI50: > 100 µM (inactive)
[44]
  GI50: 80.7 µM (inactive)
[45]
  GI50: > 100 µM (inactive)
[46]
  GI50: > 100 µM (inactive)
[47]
  GI50: 93.5 µM (inactive)
[48]
  GI50: > 100 µM (inactive)
[49]
  GI50: > 100 µM (inactive)
[50]
  GI50: > 100 µM (inactive)
[51]
  GI50: 62.7 µM (inactive)
[52]
  GI50: 54.1 µM (inactive)
[53]
  GI50: 62.2 µM (inactive)
[54]
  GI50: > 100 µM (inactive)
[55]
  GI50: > 100 µM (inactive)
[56]
  GI50: 43.1 µM (inactive)

## CC(C)(C)OC(=O)NCCc1cccc2c1oc1c(CCC(=O)O)cccc12
[1]
  GI50: > 100 µM (inactive)
[2]
  GI50: > 100 µM (inactive)
[3]
  GI50: 95.9 µM (inactive)
[4]
  GI50: > 100 µM (inactive)
[5]
  GI50: > 100 µM (inactive)
[6]
  GI50: > 100 µM (inactive)
[7]
  GI50: > 100 µM (inactive)
[8]
  GI50: > 100 µM (inactive)
[9]
  GI50: > 100 µM (inactive)
[10]
  GI50: > 100 µM (inactive)
[11]
  GI50: > 100 µM (inactive)
[12]
  GI50: > 100 µM (inactive)
[13]
  GI50: > 100 µM (inactive)
[14]
  GI50: > 100 µM (inactive)
[15]
  GI50: > 100 µM
[16]
  GI50: > 100 µM (inactive)
[17]
  GI50: > 100 µM (inactive)
[18]
  GI50: > 100 µM (inactive)
[19]
  GI50: > 100 µM (inactive)
[20]
  GI50: > 100 µM (inactive)
[21]
  GI50: > 100 µM (inactive)
[22]
  GI50: > 100 µM (inactive)
[23]
  GI50: > 100 µM (inactive)
[25]
  GI50: > 100 µM (inactive)
[26]
  GI50: > 100 µM (inactive)
[27]
  GI50: > 100 µM (inactive)
[28]
  GI50: > 100 µM (inactive)
[29]
  GI50: > 100 µM (inactive)
[30]
  GI50: > 100 µM (inactive)
[31]
  GI50: > 100 µM (inactive)
[32]
  GI50: > 100 µM (inactive)
[34]
  GI50: > 100 µM (inactive)
[35]
  GI50: 50.7 µM (inactive)
[36]
  GI50: > 100 µM (inactive)
[37]
  GI50: > 100 µM (inactive)
[38]
  GI50: > 100 µM (inactive)
[39]
  GI50: > 100 µM (inactive)
[40]
  GI50: > 100 µM (inactive)
[41]
  GI50: > 100 µM (inactive)
[42]
  GI50: > 100 µM (inactive)
[43]
  GI50: > 100 µM (inactive)
[44]
  GI50: > 100 µM (inactive)
[45]
  GI50: > 100 µM (inactive)
[46]
  GI50: > 100 µM (inactive)
[47]
  GI50: > 100 µM (inactive)
[48]
  GI50: > 100 µM (inactive)
[49]
  GI50: > 100 µM (inactive)
[50]
  GI50: > 100 µM (inactive)
[51]
  GI50: > 100 µM (inactive)
[52]
  GI50: > 100 µM (inactive)
[53]
  GI50: > 100 µM (inactive)
[54]
  GI50: > 100 µM (inactive)
[57]
  GI50: > 100 µM (inactive)
[58]
  GI50: > 100 µM (inactive)
[55]
  GI50: > 100 µM (inactive)
[56]
  GI50: > 100 µM (inactive)
